We go through one compound from publication PMC7321065, “Discovery of New Schiff Bases Tethered Pyrazole Moiety: Design, Synthesis, Biological Evaluation, and Molecular Docking Study as Dual Targeting DHFR/DNA Gyrase Inhibitors with Immunomodulatory Activity” (Molecules, 2020).

Usually melting point stands for the temperature of the solid-liquid transition.

For data set [1], the system named is Enterococcus faecalis. The data set is described as follows: Inhibition zone, agar plate diffusion. The conditions noted are these: Ef, mm ± standard deviation, sample at 0.5 mg/mL, read-out: Inhibition zone (IZ). In kind it is cell-based. Here is the method: (§1) Antimicrobial activities of the newly formed Schiff bases (6a–d, 7a–d, 8a–d, and 9a–d) and reference drugs were evaluated against three Gram-positive, three Gram-negative, and two fungi strain at Al-Azhar University, Cairo, Egypt. The inhibition zones (IZ, in mm ± standard deviation) and the minimal inhibitory concentration (MIC) (μg/mL) were determined by the conventional paper disk diffusion method.
(§2) In Vitro Antimicrobial Activities
(§3) The antimicrobial activities inhibition zone (IZ, mm±standard deviation) of pyrazole Schiff bases ( 6a-d , 7a-d, 8a-d and 9a-d ) was measurement according to the agar plate diffusion method. Briefly, 100 µl of the […]
(§4) […] of each sample (at 0.5 mg/mL) was added to each well (10 mm diameter holes cut in the agar gel). The plates were incubated for 24 h at 37 °C (for bacteria and yeast) and for 72 h at 27 °C (for filamentous fungi), each test was repeated three times. After incubation, the microorganism's growth was observed. […]
(§5) drugs while Amphotericin B was used as standard antifungal drug. The resulting inhibition zone diameters were measured in millimeters and used as criterion for the antimicrobial activity. Solvent controls (DMSO) were included in every experiment as negative controls. DMSO was used for dissolving […]
(§6) the tested microorganisms. […]

The test system of data set [2] is Escherichia coli. In words: Inhibition zone, agar plate diffusion. The class given is cell-based. The conditions noted are these: Ec, mm ± standard deviation, sample at 0.5 mg/mL, read-out: Inhibition zone (IZ). The protocol:
as §1, §2, §3, §4, §5, §6

The test system of data set [3] is Bacillus subtilis. In words: Inhibition zone, agar plate diffusion. The following applies: Bs, mm ± standard deviation, sample at 0.5 mg/mL, read-out: Inhibition zone (IZ). The class given is cell-based. Here is the method:
as §1, §2, §3, §4, §5, §6

In data set [4] the test system is Pseudomonas aeruginosa. The data set is described as follows: Inhibition zone, agar plate diffusion. The following applies: Pa, mm ± standard deviation, sample at 0.5 mg/mL, read-out: Inhibition zone (IZ). In kind it is cell-based. Here is the method:
as §1, §2, §3, §4, §5, §6

Data set [5] concerns Salmonella typhi. The data set is described as follows: Inhibition zone, agar plate diffusion. In kind it is cell-based. The following applies: Salmonella enterica, St, mm ± standard deviation, sample at 0.5 mg/mL, read-out: Inhibition zone (IZ). Here is the method:
as §1, §2, §3, §4, §5, §6
(§7) Bacteria were grown on nutrient agar medium, while fungi and yeast were grown on Sabouraud agar medium. […]

Data set [6] concerns Fusarium oxysporum. In words: Inhibition zone, agar plate diffusion. In kind it is cell-based. The conditions noted are these: Fo, mm ± standard deviation, sample at 0.5 mg/mL, read-out: Inhibition zone (IZ). Here is the method:
as §1, §2, §3, §4, §5, §6, §7

Data set [7] relates to Staphylococcus aureus. The data set is described as follows: Inhibition zone, agar plate diffusion. In kind it is cell-based. The conditions noted are these: Sa, mm ± standard deviation, sample at 0.5 mg/mL, read-out: Inhibition zone (IZ). Here is the method: as §1, §2, §3, §4, §5, §6, §7
Data set [8] concerns Candida albicans. The data set is described as follows: Inhibition zone, agar plate diffusion. In kind it is cell-based. The following applies: Ca, mm ± standard deviation, sample at 0.5 mg/mL, read-out: Inhibition zone (IZ). Here is the method:
as §1, §2, §3, §4, §5, §6, §7

With `COc1ccc(Nc2n[nH]c(N=Cc3cc(OC)c(OC)c(OC)c3)c2C(=O)Nc2ccc(C)cc2)cc1` [9c, 3-(p-Methoxyphenylamino)-N-p-tolyl-5-(3,4,5-trimethoxybenzylideneamino)-1H-pyrazole-4-carboxamide], the melting point fell in the range of 234 to 236 °C. For the same compound, in [1], the zone of inhibition at 500 µg/mL turned out to be 21 ± 0.72 mm. Also, the zone of inhibition at 500 µg/mL in [2] was 23 ± 0.44 mm. Further, the zone of inhibition at 500 µg/mL in [3] was determined as 22 ± 0.18 mm. Also, in [4], the zone of inhibition at 500 µg/mL is below 8 mm. Further, the zone of inhibition at 500 µg/mL in data set [5] came out at 23 ± 0.33 mm. In addition, the zone of inhibition at 500 µg/mL in data set [6] stood at 19 ± 0.28 mm. Besides, the zone of inhibition at 500 µg/mL in data set [7] was 22 ± 0.34 mm. Moreover, the zone of inhibition at 500 µg/mL in data set [8] worked out at 21 ± 0.5 mm.
